Patent US10519134B2, “Pyrazole compounds and methods of making and using same” (Lundbeck La Jolla Research Center, Inc., priority 2015, dated 2019)

Assays:
MAGL [1] = target: T1, MAGL (Mus musculus, UniProt O35678); test: In vitro competitive activity-based protein profiling (mouse), MAGL gel band; assay type: biochemical; details: for IC50: mouse; for inhibition at 1 µM: read-out: MAGL % inh. 1 μM
T1 construct: Proteomes (mouse brain membrane fraction or cell lysates); from tissue; host or cells: mouse brain membrane fraction (or cell lysates)
T1 sequence (O35678 1-303): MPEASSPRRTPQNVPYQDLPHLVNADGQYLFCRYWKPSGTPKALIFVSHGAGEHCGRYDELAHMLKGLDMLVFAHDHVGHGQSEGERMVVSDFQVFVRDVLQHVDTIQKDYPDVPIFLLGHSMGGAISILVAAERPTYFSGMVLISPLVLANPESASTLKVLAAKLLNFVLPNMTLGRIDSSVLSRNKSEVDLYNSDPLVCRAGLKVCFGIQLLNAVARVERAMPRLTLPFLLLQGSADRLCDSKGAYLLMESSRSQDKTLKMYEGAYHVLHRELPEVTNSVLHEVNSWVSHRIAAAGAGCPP
How it was run: (§1)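 Competitive ABPP: inhibitors at varying concentrations were given 30 min at 37 °C with mouse brain membranes or cell lysates (1.0 mg/mL total protein) before 30 min labelling by FP-Rh or HT-01 (stock 50 μM in DMSO). Residual hydrolase activity read as in-gel fluorescence of MAGL and FAAH bands.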

FAAH = target: T2, FAAH (Mus musculus, UniProt O08914); test: In vitro competitive activity-based protein profiling (mouse), FAAH gel band; assay type: biochemical; details: for IC50: mouse; for inhibition at 1 µM: read-out: FAAH % inh. 1 μM
T2 construct: Proteomes (mouse brain membrane fraction or cell lysates); from tissue; host or cells: mouse brain membrane fraction (or cell lysates)
T2 sequence (O08914 1-579): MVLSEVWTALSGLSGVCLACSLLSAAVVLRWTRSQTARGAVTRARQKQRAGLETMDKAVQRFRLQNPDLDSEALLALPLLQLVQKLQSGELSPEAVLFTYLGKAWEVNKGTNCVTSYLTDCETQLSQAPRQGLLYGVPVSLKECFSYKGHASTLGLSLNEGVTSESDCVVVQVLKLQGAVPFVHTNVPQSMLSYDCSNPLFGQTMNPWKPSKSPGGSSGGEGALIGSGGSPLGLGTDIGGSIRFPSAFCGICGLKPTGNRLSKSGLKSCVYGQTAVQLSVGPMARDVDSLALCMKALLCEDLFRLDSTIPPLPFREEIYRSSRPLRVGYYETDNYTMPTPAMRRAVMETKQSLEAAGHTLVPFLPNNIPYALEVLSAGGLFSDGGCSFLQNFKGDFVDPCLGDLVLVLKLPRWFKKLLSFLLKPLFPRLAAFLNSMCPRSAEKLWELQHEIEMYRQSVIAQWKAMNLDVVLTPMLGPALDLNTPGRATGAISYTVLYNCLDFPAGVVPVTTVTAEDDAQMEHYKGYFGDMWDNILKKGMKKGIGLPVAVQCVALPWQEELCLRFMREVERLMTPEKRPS
How it was run: as §1

MAGL [2] = target: T1, MAGL; test: Mouse brain proteomes from inhibitor treated mice (oral gavage, sacrificed 4 h after administration); assay type: in vivo; details: read-out: MAGL % inh. 5 mg/kg
Procedure: Compounds are tested to assess their MAGL and other serine hydrolase activity using the following in vitro and in vivo assays.
Preparation of Mouse Brain Proteomes from Inhibitor Treated Mice.
Inhibitors were administered to wild-type C57Bl/6J by oral gavage in a vehicle of polyethylene glycol. Each animal was sacrificed 4 h following administration and brain proteomes were prepared and analyzed according to previously established methods (See Niphakis, M. J., et al. (2011) ACS Chem. Neurosci. and Long, J. Z., et al. Nat. Chem. Biol. 5:37-44)

| Structure (SMILES) | IC50 (MAGL [1]) | inhibition at 1 µM (MAGL [1]) | IC50 (FAAH) | inhibition at 1 µM (FAAH) | inhibition at 5 mg/kg (MAGL [2]) |
| --- | --- | --- | --- | --- | --- |
| CC(=O)Nc1ccn(C(=O)N2CCN(Cc3ccc(C(F)(F)F)cc3Oc3cncnc3)CC2)n1 [Example 73, N-(1-(4-(2-(pyrimidin-5-yloxy)-4-(trifluoromethyl)benzyl)piperazine-1-carbonyl)-1H-pyrazol-3-yl)acetamide] | ≤ 100 nM | ≥ 75% | 1000 to 10000 nM | 0 to 25% | 0 to 25% |
| CC(=O)Nc1ccn(C(=O)N2CCC3(CCCN3Cc3cc(N4C5CCC4COC5)cc(C(F)(F)F)c3)CC2)n1 [Example 62, N-(1-(1-(3-(3-oxa-8-azabicyclo[3.2.1]octan-8-yl)-5-(trifluoromethyl)benzyl)-1,8-diazaspiro[4.5]decane-8-carbonyl)-1H-pyrazol-3-yl)acetamide] | ≤ 100 nM | ≥ 75% | 1000 to 10000 nM | 0 to 25% | 0 to 25% |
| CC(=O)Nc1ccn(C(=O)N2CCC3(CCCN3Cc3ccc(C(F)(F)F)cc3Oc3cncnc3)CC2)n1 [Example 83, N-(1-(1-(2-(pyrimidin-5-yloxy)-4-(trifluoromethyl)benzyl)-1,8-diazaspiro[4.5]decane-8-carbonyl)-1H-pyrazol-3-yl)acetamide] | ≤ 100 nM | ≥ 75% | 1000 to 10000 nM | 0 to 25% | 0 to 25% |
| [2H]C([2H])([2H])C(=O)Nc1ccn(C(=O)N2CCC3(CCCN3Cc3ccc(Cl)c(C)c3)CC2)n1 [Example 286, N-(1-(1-(4-chloro-3-methylbenzyl)-1,8-diazaspiro[4.5]decane-8-carbonyl)-1H-pyrazol-3-yl)acetamide-2,2,2-d3] |  | ≥ 75% |  | 0 to 25% | ≥ 75% |
| CC(=O)Nc1ccn(C(=O)N2CCC3(CCCN3Cc3ccc(Cl)cc3N3CCC4(CCOCC4)C3)CC2)n1 [Example 9, N-(1-(1-(4-chloro-2-(8-oxa-2-azaspiro[4.5]decan-2-yl)benzyl)-1,8-diazaspiro[4.5]decane-8-carbonyl)-1H-pyrazol-3-yl)acetamide] | ≤ 100 nM | ≥ 75% | 1000 to 10000 nM | 0 to 25% | 0 to 25% |
| CC(=O)Nc1ccn(C(=O)N2CCC3(CCCN3Cc3ccc(C(F)(F)F)cc3OC3CCN(C4CC4)CC3)CC2)n1 [Example 81, N-(1-(1-(2-(1-cyclopropylpiperidin-4-yloxy)-4-(trifluoromethyl)benzyl)-1,8-diazaspiro[4.5]decane-8-carbonyl)-1H-pyrazol-3-yl)acetamide] | ≤ 100 nM | ≥ 75% | 1000 to 10000 nM | 0 to 25% | 0 to 25% |
| CC(=O)Nc1ccn(C(=O)N2CCC3(CCCN3Cc3cc(N4CCCC4)cc(C(F)(F)F)c3)CC2)n1 [Example 61, N-(1-(1-(3-(pyrrolidin-1-yl)-5-(trifluoromethyl)benzyl)-1,8-diazaspiro[4.5]decane-8-carbonyl)-1H-pyrazol-3-yl)acetamide] | ≤ 100 nM | ≥ 75% | 1000 to 10000 nM | 0 to 25% | 0 to 25% |
| CC(=O)Nc1ccn(C(=O)N2CCN(Cc3ccc(Cl)cc3N3CCN(C4CC4)CC3)CC2)n1 [Example 58, N-(1-(4-(4-chloro-2-(4-cyclopropylpiperazin-1-yl)benzyl)piperazine-1-carbonyl)-1H-pyrazol-3-yl)acetamide] | ≤ 100 nM | ≥ 75% | 1000 to 10000 nM | 0 to 25% | ≥ 75% |
| CC(=O)Nc1ccn(C(=O)N2CCC3(CCCN3Cc3cc(Cl)cc(N4CCCC4)c3)CC2)n1 [Example 63, N-(1-(1-(3-chloro-5-(pyrrolidin-1-yl)benzyl)-1,8-diazaspiro[4.5]decane-8-carbonyl)-1H-pyrazol-3-yl)acetamide] | ≤ 100 nM | ≥ 75% | 1000 to 10000 nM | 0 to 25% | 25 to 50% |
| CC(=O)Nc1ccn(C(=O)N2CCC3(CCCN3Cc3ccc(C(N)=O)c(C(F)(F)F)c3)CC2)n1 [Example 109, 4-((8-(3-acetamido-1H-pyrazole-1-carbonyl)-1,8-diazaspiro[4.5]decan-1-yl)methyl)-2-(trifluoromethyl)benzamide] | ≤ 100 nM | ≥ 75% | 1000 to 10000 nM | 0 to 25% | 0 to 25% |
| CC(=O)Nc1ccn(C(=O)N2CCC3(CCCN3Cc3cc(OCC(=O)N4CCCC4)cc(C(F)(F)F)c3)CC2)n1 [Example 90, N-(1-(1-(3-(2-oxo-2-(pyrrolidin-1-yl)ethoxy)-5-(trifluoromethyl)benzyl)-1,8-diazaspiro[4.5]decane-8-carbonyl)-1H-pyrazol-3-yl)acetamide] | ≤ 100 nM | ≥ 75% | 1000 to 10000 nM | 0 to 25% | 0 to 25% |
| CC(=O)Nc1ccn(C(=O)N2CCC3(CCCN3Cc3cc(OC4CCN(C5CC5)CC4)cc(C(F)(F)F)c3)CC2)n1 [Example 82, N-(1-(1-(3-(1-cyclopropylpiperidin-4-yloxy)-5-(trifluoromethyl)benzyl)-1,8-diazaspiro[4.5]decane-8-carbonyl)-1H-pyrazol-3-yl)acetamide] | ≤ 100 nM | ≥ 75% | 1000 to 10000 nM | 0 to 25% | 0 to 25% |
| Cc1c(CN2CCCC23CCN(C(=O)n2ccc(NS(C)(=O)=O)n2)CC3)cccc1N1CCCCC1 [Example 142, N-(1-(1-(2-methyl-3-(piperidin-1-yl)benzyl)-1,8-diazaspiro[4.5]decane-8-carbonyl)-1H-pyrazol-3-yl) methanesulfonamide] | ≤ 100 nM | ≥ 75% | 1000 to 10000 nM | 0 to 25% | 0 to 25% |
| CC(=O)Nc1ccn(C(=O)N2CCN(Cc3ccc(Cl)cc3N3CCOCC3)CC2)n1 [Example 6, N-(1-(4-(4-chloro-2-morpholinobenzyl)piperazine-1-carbonyl)-1H-pyrazol-3-yl)acetamide] | ≤ 100 nM | ≥ 75% | 1000 to 10000 nM | 0 to 25% | 25 to 50% |
| CC(=O)Nc1ccn(C(=O)N2CCC3(CCCN3Cc3ccc(C(F)(F)F)cc3N3CCC(F)(F)CC3)CC2)n1 [Example 29, N-(1-(1-(2-(4,4-difluoropiperidin-1-yl)-4-(trifluoromethyl)benzyl)-1,8-diazaspiro[4.5]decane-8-carbonyl)-1H-pyrazol-3-yl)acetamide] | ≤ 100 nM | ≥ 75% | 1000 to 10000 nM | 25 to 50% | 0 to 25% |
| CCN1CCN(c2cc(C(F)(F)F)ccc2CN2CCCC23CCN(C(=O)n2ccc(NC(C)=O)n2)CC3)CC1 [Example 31, N-(1-(1-(2-(4-ethylpiperazin-1-yl)-4-(trifluoromethyl)benzyl)-1,8-diazaspiro[4.5]decane-8-carbonyl)-1H-pyrazol-3-yl)acetamide] | 100 to 1000 nM | ≥ 75% | 1000 to 10000 nM | 0 to 25% | 25 to 50% |
| CC(=O)Nc1ccn(C(=O)N2CCC3(CCCN3Cc3ccc(Cl)cc3N3CCCCC3)CC2)n1 [Example 33, N-(1-(1-(4-chloro-2-(piperidin-1-yl)benzyl)-1,8-diazaspiro[4.5]decane-8-carbonyl)-1H-pyrazol-3-yl)acetamide] | ≤ 100 nM | ≥ 75% | 1000 to 10000 nM | 0 to 25% | 25 to 50% |
| CC(=O)Nc1ccn(C(=O)N2CCC3(CCCN3Cc3ccc(Cl)cc3N3CCCC3)CC2)n1 [Example 14, N-(1-(1-(4-chloro-2-(pyrrolidin-1-yl)benzyl)-1,8-diazaspiro[4.5]decane-8-carbonyl)-1H-pyrazol-3-yl)acetamide] | ≤ 100 nM | ≥ 75% | 1000 to 10000 nM | 0 to 25% | 25 to 50% |
